Laboratory results from patent US6479531B1, “Gastrin and cholecystokinin receptor ligands” (James Black Foundation Limited, priority 1998, dated 2002).

Tests used:
CCKB receptor = molecular target: T1, CCKB receptor (Mus musculus, UniProt P56481); experiment: CCKB receptor radioligand binding assay in mouse cortical membranes; details: [125I]-CCK8(S) 200 pM, 150 min at 21±3°, read-out: CCKB pKi (converted)
T1 construct: The whole brains from male mice (CD1 22-25 g; Charles River) were removed; from tissue; host or cells: cerebral cortex membranes of male CD1 mice
T1 sequence (P56481 1-453): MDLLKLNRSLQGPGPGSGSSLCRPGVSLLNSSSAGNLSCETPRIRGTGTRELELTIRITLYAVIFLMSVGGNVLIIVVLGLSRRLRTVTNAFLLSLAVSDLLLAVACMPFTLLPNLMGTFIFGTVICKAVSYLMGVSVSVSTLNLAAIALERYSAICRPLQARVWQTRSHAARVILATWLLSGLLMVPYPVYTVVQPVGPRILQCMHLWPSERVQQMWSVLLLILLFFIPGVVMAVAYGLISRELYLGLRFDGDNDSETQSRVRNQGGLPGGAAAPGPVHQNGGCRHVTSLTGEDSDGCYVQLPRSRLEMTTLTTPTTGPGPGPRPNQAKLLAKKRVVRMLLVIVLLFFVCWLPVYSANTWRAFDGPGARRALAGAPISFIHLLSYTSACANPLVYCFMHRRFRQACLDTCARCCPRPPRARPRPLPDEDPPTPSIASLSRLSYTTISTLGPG
In short: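 Bound radioactivity was gamma-counted after rapid GF/B filtration and cold 50 mM Tris-HCl (pH 7.4) washes. The tissue was cerebral cortex from male CD1 mice, prepared as twice-centrifuged membranes in pH 7.2 HEPES/NaCl/KCl/MgCl2/EDTA buffer with bacitracin at 20 mg/ml original wet weight.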

gastrin receptor = molecular target: T2, gastrin receptor (Rattus norvegicus, UniProt P30553); experiment: gastrin antagonist activity in immature rat stomach assay (pentagastrin dose-response, acid secretion); details: isolated immature rat stomach, cumulative pentagastrin dose-response curves, read-out: Gastrin pKb (converted)
T2 construct: The stomach was excised and flushed with ca. 1 ml of unbuffered physiological saline solution; from tissue; host or cells: isolated whole stomach of immature rats (ca. 21 days old)
T2 sequence (P30553 1-452): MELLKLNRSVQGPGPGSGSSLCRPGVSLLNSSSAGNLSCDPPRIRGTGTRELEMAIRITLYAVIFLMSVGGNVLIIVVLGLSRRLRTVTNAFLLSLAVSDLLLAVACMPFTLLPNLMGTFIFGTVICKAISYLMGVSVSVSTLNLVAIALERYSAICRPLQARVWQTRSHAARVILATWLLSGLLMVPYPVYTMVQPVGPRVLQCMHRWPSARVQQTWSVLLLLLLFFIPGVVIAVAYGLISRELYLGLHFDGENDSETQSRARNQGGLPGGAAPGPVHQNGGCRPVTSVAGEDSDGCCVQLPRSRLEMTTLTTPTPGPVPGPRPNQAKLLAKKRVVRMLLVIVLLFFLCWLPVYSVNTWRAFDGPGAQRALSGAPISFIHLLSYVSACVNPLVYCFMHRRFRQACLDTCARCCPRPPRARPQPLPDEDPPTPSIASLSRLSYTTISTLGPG
In short: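 Gastrin antagonism was measured as the effect on cumulative pentagastrin dose-response curves of acid output, recorded by pH electrode in the perfusate of an excised immature rat stomach (ca. 21 days old). Test compound was placed in the serosal bath (37°, 3×10^−8 M 5-methylfurmethide) 60 min before pentagastrin.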

SMILES	Ki (CCKB receptor) [µM]	Kb (gastrin receptor) [µM]
CCc1ccccc1-c1nc(C(=O)Nc2cccc(C(=O)O)c2)c(CCC23CC4CC(CC(C4)C2)C3)[nH]1 [Example 158, 3-{[5-(2-Adamantan-1-yl-ethyl)-2-(2-ethyl-phenyl)-1H-imidazole-4-carbonyl]-amino}-benzoic Acid]	0.759	0.105
O=C(O)c1cc(NC(=O)c2nc(C3CCCCC3)[nH]c2CCC23CC4CC(CC(C4)C2)C3)cc(C(=O)O)c1 [Example 129, 5-{[5-(2-Adamantan-1-yl-ethyl)-2-cyclohexyl-1H-imidazole-4-carbonyl]-amino}-isophthalic Acid]	0.219	0.38
Cc1cc(C)c(-c2nc(C(=O)Nc3cccc(C(=O)O)c3)c(CCC34CC5CC(CC(C5)C3)C4)[nH]2)c(C)c1 [Example 154, 3-{[5-(2-Adamantan-1-yl-ethyl)-2-(2,4,6-trimethyl-phenyl)-1H-imidazole-4-carbonyl]-amino}-benzoic Acid]	0.0245	0.00871
O=C(O)c1cccc(NC(=O)c2[nH]c(C3CCCCCC3)nc2CCC23CC4CC(CC(C4)C2)C3)c1 [Example 79, 3-{[5-(2-Adamantan-1-yl-ethyl)-2-cycloheptyl-1H-imidazole-4-carbonyl]-amino}-benzoic Acid]	0.0117	0.00537
O=C(O)c1cccc(NC(=O)c2nc(-c3ccccc3Br)[nH]c2CCC23CC4CC(CC(C4)C2)C3)c1 [Example 59, 3-{[5-(2-Adamantan-1-yl-ethyl)-2-(2-bromo-phenyl)-1H-imidazole-4-carbonyl]-amino}-benzoic Acid]	0.251	0.0575
CCCC(CCC)c1nc(C(=O)Nc2ccc(C)c(C(=O)O)c2)c(CCC23CC4CC(CC(C4)C2)C3)[nH]1 [Example 126, 5-{[5-(2-Adamantan-1-yl-ethyl)-2-(1-propyl-butyl)-1H-imidazole-4-carbonyl]-amino}-2-methyl-benzoic Acid]	0.0219	0.0158
Cc1ccccc1-c1nc(C(=O)Nc2cccc(C(=O)O)c2)c(CCC2CCCCC2)[nH]1 [Example 89, 3-{[5-(2-Cyclohexyl-ethyl)-2-o-tolyl-1H-imidazole-4-carbonyl]-amino}-benzoic Acid]	0.676	0.02
Cc1cccc(C)c1-c1nc(C(=O)Nc2cccc(C(=O)O)c2)c(CCC23CC4CC(CC(C4)C2)C3)[nH]1 [Example 65, 3-{[5-(2-Adamantan-1-yl-ethyl)-2-(2,6-dimethyl-phenyl)-1H-imidazole-4-carbonyl]-amino}-benzoic Acid]	0.0562	0.1
O=C(O)c1cccc(NC(=O)c2sc(C3CCCCC3)nc2CCC23CC4CC(CC(C4)C2)C3)c1 [Example 122, 3-{[4-(2-Adamantan-1-yl-ethyl)-2-cyclohexyl-thiazole-5-carbonyl]-amino}-benzoic Acid]	1.02	3.02
CC1=C(Cc2nc(C(=O)Nc3cccc(C(=O)O)c3)c(CCC34CC5CC(CC(C5)C3)C4)[nH]2)C(C)(C)CCC1 [Example 202, 3-{[5-(2-Adamantan-1-yl-ethyl)-2-(2,6,6-trimethyl-cyclohex-1-enylmethyl)-1H-imidazole-4-carbonyl]-amino)-benzoic Acid]	0.112	0.0288
CC(Cc1[nH]c(C2CCCCC2)nc1C(=O)Nc1cccc(C(=O)O)c1)C12CC3CC(CC(C3)C1)C2 (racemic) [Example 132, (±)-3-{[5-(2-Adamantan-1-yl-propyl)-2-cyclohexyl-1H-imidazole-4-carbonyl]-amino}-benzoic Acid]	0.0427	0.00813
Cc1ccccc1-c1nc(CCC23CC4CC(CC(C4)C2)C3)c(C(=O)Nc2ccc(N(C)C)c(C(=O)O)c2)[nH]1 [Example 242, 5-{[5-(2-Adamantan-1-yl-ethyl)-2-o-tolyl-1H-imidazole-4-carbonyl]-amino}-2-dimethylamino-benzoic Acid]	0.324	0.741
O=C(O)c1cc(NC(=O)c2[nH]c(-c3ccccc3)nc2CCC23CC4CC(CC(C4)C2)C3)cc(C(=O)O)c1 [Example 46, 5-{[5-(2-Adamantan-1-yl-ethyl)-2-phenyl-1H-imidazole-4-carbonyl]-amino}-isophthalic Acid]	0.646	2.51
Cc1ccc(NC(=O)c2nc(C3(C)CCCCC3)[nH]c2COC23CC4CC(CC(C4)C2)C3)cc1C(=O)O [Example 220, 5-([5-(Adamantan-1-yloxymethyl)-2-(1-methyl-cyclohexyl)-1H-imidazole-4-carbonyl]-amino}-2-methyl-benzoic Acid]	0.00295	0.000468
Cc1ccccc1-c1nc(C(=O)Nc2ccc(Br)c(C(=O)O)c2)c(CCC23CC4CC(CC(C4)C2)C3)[nH]1 [Example 246, 5-{[5-(2-Adamantan-1-yl-ethyl)-2-o-tolyl-1H-imidazole-4-carbonyl]-amino}-2-bromo-benzoic Acid]	0.00363	0.832
Cc1ccc(-c2nc(C(=O)Nc3ccc(C)c(C(=O)O)c3)c(CCC34CC5CC(CC(C5)C3)C4)[nH]2)c(C)c1 [Example 151, 5-{[5-(2-Adamantan-1-yl-ethyl)-2-(2,4-dimethyl-phenyl)-1H-imidazole-4-carbonyl]-amino}-2-methyl-benzoic Acid]	0.00631	0.0219
CCCc1nc(C(=O)Nc2cccc(C(=O)O)c2)c(CCC23CC4CC(CC(C4)C2)C3)[nH]1 [Example 81, 3-{[5-(2-Adamantan-1-yl-ethyl)-2-propyl-1H-imidazole-4-carbonyl]-amino}-benzoic Acid]	0.269	0.0525
O=C(O)c1cccc(NC(=O)c2nc(-c3c(F)cccc3F)[nH]c2CCC23CC4CC(CC(C4)C2)C3)c1 [Example 61, 3-{[5-(2-Adamantan-1-yl-ethyl)-2-(2,6-difluoro-phenyl)-1H-imidazole-4-carbonyl]-amino}-benzoic Acid]	0.148	0.0316
CCc1ccccc1-c1nc(C(=O)Nc2ccc(C)c(C(=O)O)c2)c(CCC23CC4CC(CC(C4)C2)C3)[nH]1 [Example 159, 5-{[5-(2-Adamantan-1-yl-ethyl)-2-(2-ethyl-phenyl)-1H-imidazole-4-carbonyl]-amino}-2-methyl-benzoic Acid]	0.0123	0.316
O=C(O)c1cccc(NC(=O)c2nc(-c3cnc[nH]3)[nH]c2CCC23CC4CC(CC(C4)C2)C3)c1 [Example 110, 3-{[5-(2-Adamantan-1-yl-ethyl)-1H-3′H-[2,4′]biimidazolyl-4-carbonyl]-amino}-benzoic Acid]	0.339	1.05
CC1(c2nc(C(=O)Nc3cccc(C(=O)O)c3)c(CCC34CC5CC(CC(C5)C3)C4)[nH]2)CCCCC1 [Example 199, 3-{[5-(2-Adamantan-1-yl-ethyl)-2-(1-methyl-cyclohexyl)-1H-imidazole-4-carbonyl]-amino}-benzoic Acid]	0.0178	0.00162
Cc1ccc(NC(=O)c2nc(C3CC4CCC3C4)[nH]c2CCC23CC4CC(CC(C4)C2)C3)cc1C(=O)O (racemic) [Example 209, (±)-endo-5-{[5-(2-Adamantan-1-yl-ethyl)-2-bicyclo[2.2.1]hept-2-yl-1H-imidazole-4-carbonyl]-amino}-2-methyl-benzoic Acid]	0.00209	0.0011
O=C(O)c1cccc(NC(=O)c2nc(-c3c(Cl)cccc3Cl)[nH]c2CCC23CC4CC(CC(C4)C2)C3)c1 [Example 148, 3-{[5-(2-Adamantan-1-yl-ethyl)-2-(2,6-dichlorophenyl)-1H-imidazole-4-carbonyl]-amino}-benzoic Acid]	0.102	0.0537
COc1cccc(-c2nc(C(=O)Nc3cccc(C(=O)O)c3)c(CCC3CCCCCC3)[nH]2)c1 [Example 42, 3-{[5-(2-Cycloheptyl-ethyl)-2-(3-methoxy-phenyl)-1H-imidazole-4-carbonyl]-amino}-benzoic Acid]	1.51	0.0501
CC1(CCc2[nH]c(C3CCCCC3)nc2C(=O)Nc2cccc(C(=O)O)c2)CCCCC1 [Example 133, 3-({2-Cyclohexyl-5-[2-(1-methyl-cyclohexyl)-ethyl]-1H-imidazole-4-carbonyl}-amino)-benzoic Acid]	0.141	0.012
